Experimental data from patent publication US10563271B2, “High-level production of diacetyl in a metabolically engineered lactic acid bacterium” (Danmarks Tekniske Universitet, priority 2015, dated 2020).

Legend:
[1] = test system: L. lactis strain CS4616m; assay: Inhibition of growth of CS4616m culture by metal ions or diacetyl; assay type: cell-based, Lactococcus lactis subsp. cremoris
Procedure: FIG. 5. Inhibitory effect of diacetyl on growth of L. lactis CS4616m. (A) Graphical presentation of cell growth of L. Lactis strain CS4616m, as measured by cell density (OD600 nm), in the presence of diacetyl (0-10 mM), which was added when the culture reached a cell density (OD600 nm) of 0.6. (B) Graphical presentation of cell growth of L. Lactis strain CS4616m, as measured by cell density (OD600 nm), and substrate/product profile in the presence of 10 mM Fe^3+ (added in the beginning of growth phase).
The observed high yields of diacetyl by cells of the L. lactis strain CS4616m are achieved by the addition of metal ions to the cells after they have reached the desired cell biomass. […] The final biomass of a culture grown in the presence of 10 mM Fe^3+ was only 3.3 (OD600 nm) (FIG. 5B) compared to 8.5 (OD600 nm) in the absence of a Fe^3+ supplement (FIG. 5A). […] In summary, for optimal diacetyl production, L. lactis strain CS4616m should be cultivated under aerobic conditions in the presence of a carbon source, e.g. glucose, in the presence of hemin until a sufficient biomass has been reached, followed by the addition of metal ions, preferably Fe^3+ or Cu^2+), and maintaining the aerobic conditions, in order for the accumulated acetolactate to be converted into diacetyl with high yield. The observed increase in diacetyl production by cells of the L. lactis strain CS4616m in response to Fe^3+, Fe^2+ and Cu^2+ is consistent with the finding that these metal ions serve as accelerators of the non-enzymatic oxidative decarboxylation flux from acetolactate to diacetyl. Optionally, once a sufficient biomass of the genetically modified Lactococcus lactis has been obtained following cultivation in the presence of a source of protoporphyrin IX or iron-containing porphyrin (e.g. hemin), the conversion of accumulated acetolactate can be accelerated by elevating the temperature of the culture or culture medium, for example to 60-65 degrees centigrade.

[2] = test system: L. lactis strain CS4616m; assay: Metal ion enhancement of diacetyl production from acetolactate in stationary-phase CS4616m culture; set-up: species or system Lactococcus lactis subsp. cremoris
Procedure: Graphical presentation of diacetyl formation from acetolactate as a function of time (hr) when L. lactis strain CS4616m is cultured in the presence of increasing levels of either Fe^3+ (B); Fe^2+ (C); and Cu^2+ (D). The time point for adding the metal catalysts during the cultivation of L. Lactis strain CS4616m was at 9.8 h, which is indicated by the straight line in (A). Experiments were conducted in duplicate and error bars indicate standard deviations.
Glucose, lactate, and ethanol were detected and quantitated using the Ultimate 3000 high-pressure liquid chromatography system (Dionex, Sunnyvale, USA) equipped with a Aminex HPX-87H column (Bio-Rad, Hercules, USA) and a Shodex RI-101 detector (Showa Denko K.K., Tokyo, Japan). Pyruvate was detected and quantitated using the DAD-3000 diode array detector (Dionex, Sunnyvale, USA). The column oven temperature was set at 60° C. with a mobile phase of 5 mM H2SO4, and the flow rate was 0.5 ml/min. Acetoin and α-acetolactate were measured colorimetrically based on Westerfeld et al. (1945). Diacetyl concentration was determined as described by Benson et al (1996).
When the cells entered the stationary phase, different concentrations of these metal catalysts were added to the cultivation medium. […] The yield and productivity for diacetyl production was as high as 0.87 mol mol^−1 glucose and 0.58 g/L·h based on 4 h data.

[3] = test system: L. lactis strain CS4616m; assay: Measurement of intracellular NADH and NAD+ (NAD+/NADH-Glo Assay); assay type: cell-based, Lactococcus lactis subsp. cremoris
Procedure: L. lactis cell culture harvested in the mid-exponential growth phase (OD600 nm=0.6) was frozen in liquid nitrogen and stored at −20° C. Extraction and quantification of NADH and NAD^+ were performed using the kit NAD^+/NADH-Glo™ Assay (Promega) according to the instructions. Intracellular NADH and NAD^+ concentrations were estimated by assuming that 1 g (dry weight) of cells corresponded to 1.67 ml of intracellular volume and the cell density of 1 OD600 nm corresponds to 0.35 g/I dry cell mass.
In the L. lactis respiration chain (FIG. 2A), electrons are transferred from NADH dehydrogenase (NoxAB), menaquinone to Cyt bd oxidase in the presence of hemin. The observed growth and NADH/NAD+ ratio of genetically engineered strain CS4616m induced by hemin is consistent with the theory that NADH generated by the glycolysis pathway can be replenished through respiration and that suitable hemin activators can be used to fine-tune respiration and restore cell growth in this strain.

[4] = test system: L. lactis strain CS4616m; assay: Respiration-dependent aerobic growth of L. lactis strain CS4616m at different hemin concentrations; assay type: cell-based, Lactococcus lactis subsp. cremoris
Procedure: L. lactis were grown aerobically at 30° C. in rich M17 broth (Terzaghi et al., 1975) supplemented with 2% (w/v) glucose and different concentrations of hemin in shaken 250 ml conical flasks. When required, antibiotics were added in the following concentrations: erythromycin: 200 μg/ml for E. coli and 5 μg/ml for L. lactis, tetracycline: 8 μg/ml for E. coli and 5 μg/ml for L. lactis, chloramphenicol: 20 μg/ml for E. coli and 5 μg/ml for L. lactis.
However, growth of the L. lactis strain was restored under aerobic conditions when hemin was present (FIG. 2B). The specific growth rate and final biomass density (OD600 nm) of the L. lactis strain increased in response to hemin concentrations of above 0.2 μg/ml, where a growth rate of 0.8 h^−1 and cell density of OD600 nm 8.5 was measured using a growth medium comprising 2% glucose, hemin levels were 1 μg/ml or above.

[5] = 10 or 20 mM, present in growth medium from the beginning of the growth phase
[6] = aerobic, growth medium 2% glucose, hemin 1 μg/ml or above

For `[Cu+2]` [Cu^2+], the cell growth [1, 5] was “inhibited growth”, the cell growth ([1]; metal ion added during the growth phase) was “totally abolished cell growth” and the diacetyl concentration ([2]; 30 mM Cu^2+ added at stationary phase, after 1 h) was 78 mM. For the same compound, the “productivity for diacetyl production” value ([2]; 30 mM Cu^2+, after 1 h) was 0.619 g/L·h.

For `[Fe+3]` [Fe^3+], the final biomass ([1]; 10 mM Fe^3+ from beginning of growth, 8.5 without Fe^3+ supplement) was 3.3 OD600 nm, the cell growth [1, 5] was “inhibited growth” and the diacetyl concentration ([2]; 20 mM Fe^2+ added at stationary phase, after 4 h) was 78 mM. The diacetyl concentration ([2]; 30 mM Fe^3+ added at stationary phase, after 2 h, 108 mM glucose) was 85 mM, the diacetyl concentration ([2]; 30 mM Fe^3+ added at stationary phase, after 4 h, 108 mM glucose) was 95 mM and the “productivity for diacetyl production” value ([2]; 30 mM Fe^3+, based on 4 h data) was 0.58 g/L·h. The “yield for diacetyl production” value ([2]; 30 mM Fe^3+, based on 4 h data) was 0.87 mol mol^−1 glucose.

In the case of `CC(=O)C(C)=O` [diacetyl], the cell growth ([1]; diacetyl (0-10 mM) added at OD600 nm of 0.6) is reported as “inhibit cell growth”.

For hemin, the “NADH/NAD+ ratio” value ([3]; 0.3 μg/ml hemin) was 0.07, the “intracellular NAD+ concentration” value ([3]; 0.3 μg/ml hemin) was 0.25 mM and the “NADH/NAD+ ratio” value ([3]; 1 μg/ml hemin) was 0.03. The “intracellular NAD+ concentration” value ([3]; 1 μg/ml hemin) was 0.47 mM, the cell density [4, 6] was 8.5 OD600 nm and the growth rate [4, 6] was 0.8 h⁻¹. The “effect on cell growth” value ([4]; elevated hemin, circa 10 μg/ml or above (data not shown)) was “significant negative effect on cell growth”, the “final cell biomass and NADH/NAD+ ratio” value ([4]; hemin above 1 μg/ml (e.g. 5 μg/ml)) was “did not further increase” and the “growth of the strain under aerobic conditions” value ([4]; hemin present) was “restored”.
